Data published in patent US12679853B2, “Magnesium-serinate compound and use thereof” (priority 2018, dated 2026).

Columns and labels:
[1] = tested on: mouse hippocampal neuronal HT-22 cells, treated with DMNQ; assay: Neuronal cell protective activity against DMNQ-induced oxidative stress (DiOC6 staining, flow cytometry); assay type: cell-based; conditions: HT-22, DMNQ (10 μM) alone
Experimental: First, 1×10^6 cells were washed three times with 2% FBS-containing PBS solution, and the washed cells were suspended in 70% ethanol and fixed at 4° C. for 1 hour. The fixed cells were washed twice with the same solution, suspended in 250 μl of RNase A solution (50 μg/ml concentration), and incubated at 37° C. for 30 minutes to remove RNA from the cells. […] The cells were analyzed with a flow cytometer (FACS Calibur), and the distribution of the cell cycle was examined based on the content of stained DNA in each cell.

[2] = Blood-brain barrier (BBB) permeability, L-serine in blood and brain by LC/MS; parameters: species or system ICR mice; conditions: male, ICR, mouse, in vivo, po, 600 mg/kg
Experimental: Each of L-serine and AST-011 was administered to 7-week-old ICR mice (n=3) at a dose of 600 mg/kg, and then the brain tissue and the blood were collected. The concentrations of L-serine distributed in the blood and the brain were quantified using LC/MS, and the BBB permeability was compared between the drugs by calculating the ratio of the concentration of L-serine in the brain to that in the blood.

[3] = tested on: Murine hippocampal neuronal cell line HT-22; assay: Cell viability (MTT) assay for neuronal cell proliferation activity
Experimental: Murine hippocampal neuronal cell line HT-22 was cultured in Dulbecco's Modified Eagle's Medium (DMEM) supplemented with 10% fetal bovine serum (FBS) and 100 μg/ml gentamycin at 37° C. under a 5% CO2 atmosphere. In this Example, cells at passage 15 or below were used.
Cell proliferation activity was examined by an MTT assay for measuring cell viability. First, hippocampal neuronal cell HT-22 (1×10^4 cells) was incubated with each of serially diluted sample solutions in 96-well plates for 16 hours, and then mixed with 50 μl of MTT (3-(4,5-dimethyl thiazolyl)2,5-diphenyl tetrazolium bromide) solution (1.1 mg/ml), followed by additional incubation for 4 hours. The formed formazan crystal was dissolved in 150 μl of DMSO solution, and the optical density (OD) at 540 nm was measured using a plate reader.

[4] = tested on: mitochondria in the hippocampal neuron cell line HT-22; assay: Seahorse XF Cell Mito Stress Test, mitochondrial oxygen consumption rate; conditions: HT-22, 4 h drug treatment, various concentrations
Experimental: All procedures were performed according to the protocol of the Mito Stress Test Kit. First, hippocampal neuronal HT-22 cells were seeded into an XP-96 cell culture plate at a density of 8×10^3 cells/well, and then incubated in DMEM medium in a CO2 incubator at 37° C. for 12 hours. Then, the cells were treated with various concentrations of each of serine and the AST-011 drug. 4 hours after drug treatment, the medium was replaced with fresh medium, and the cells were further incubated in a CO2 incubator at 37° C. for 12 hours. After 12 hours of incubation, the cells were washed twice with assay medium (10 mM glucose, 1 mM pyruvate, 2 mM glutamine, pH 7.4), and 180 μl of medium was added thereto. Then, the cells were incubated in a non-CO2 incubator at 37° C. for 1 hour, and analyzed by a Seahorse extracellular flux (XF) analyzer.

| SMILES | cell damage rate [1] [%] | Concentration Plasma (L-serine) [2] [ng/mL] | activation of cell proliferation ([3]; HT-22, complete medium, 25 to 10,000 μg) | viability at 500 µg/mL ([3]; Mus musculus, HT-22, read-out: cell viability) [%] | oxygen consumption rate (OCR) value of mitochondria [4] |
| --- | --- | --- | --- | --- | --- |
| COC1=C(OC)C(=O)c2ccccc2C1=O [DMNQ, 2,3-dimethoxy-1,4-napthoquinone] | 77.8 | – | – | – | – |
| N[C@@H](CO)C(=O)O [L-serine] | – | 636 ± 55.2 | did not significantly activate cell proliferation | 125 | OCR value increased at a treatment concentration of up to 100 μg/ml and then decreased slightly at 500 μg/ml |
